# Like-named read-outs stand apart in the source and are kept apart here.
# Tests used:
# [1] = Solubility of the substrates in aqueous solution / buffer; format: physicochemical
# Procedure: The values for the PFC test are easily reproduceable since the solution of the substrate (5% ethanol) can be prepared more accurately. For the preparation of solutions of the substrate without ethanol about 24 hours are need to dissolve 1 mg of the substrate in 1 l of the buffer. The fluorometric test is particularly suited for the determination of low activities of penicillin G-acylase.
# The yields obtained in the preparation of the 7-phenylacetic acid-4-alkyl-coumarinyl amides of the invention, in particular of PFC and PMC, were in the range of from 50 to 80% at a high product purity (NMR, IR). […] However, this problem may be overcome by dissolving the substrate at first in pure ethanol and then diluting it with the corresponding buffer to a mixture with 5% ethanol. In this manner concentrations of 6 mg/l can be achieved.
# penicillin G-acylase = penicillin G-acylase (Escherichia coli, UniProt P06875); experiment: Kinetic study of enzymatic cleavage of the coumarinyl amides (Lineweafer-Burg-plot), fluorometric test; format: biochemical; conditions: enzyme concentration constant, substrate concentration varied, 50 mM K-P-buffer, 5% ethanol
# Procedure: During the tests it has been observed repeatedly that the conversion rate of the reaction decreases at higher substrate concentrations. Therefore, research work for the determination of the kinetic parameters (Vmax and KM) of this reaction system had to be carried out.
# The enzyme concentration in the test was kept constant and the substrate concentration (50 mM K-P-buffer 5% ethanol for both substrates) was varied.
# The test mixture contains 3 μg/ml of the coumarinyl derivative as obtained in example 1, dissolved in 50 mM of a potassium-phosphate-buffer (pH 8, 5% ethanol).
# At first a solution of the coumarinyl derivative in ethanol is prepared and diluted with the phosphate buffer according to the concentration values. 3 ml of the mixture are measured in a fluorescence cuvette in a spectral fluorometer (λ=440 nm for PMC; λ=495 nm for PFC) in regard to the background signal.
# The reaction is started (while stirring) by the addition of 10 to 100 μl of the sample and followed. The activity of the enzyme can be estimated from the linear initial increase of the fluorescence/time-diagram after a corresponding calibration has been made.
# [2] = aqueous solution, aqueous solutions, without ethanol, read-out: solubility in aqueous solutions
# [3] = buffer with 5% ethanol, organic solvent or mixture, buffer mixture with 5% ethanol, read-out: achievable concentration after dissolving in pure ethanol and diluting with buffer
# Sequence of penicillin G-acylase (P06875 290-846): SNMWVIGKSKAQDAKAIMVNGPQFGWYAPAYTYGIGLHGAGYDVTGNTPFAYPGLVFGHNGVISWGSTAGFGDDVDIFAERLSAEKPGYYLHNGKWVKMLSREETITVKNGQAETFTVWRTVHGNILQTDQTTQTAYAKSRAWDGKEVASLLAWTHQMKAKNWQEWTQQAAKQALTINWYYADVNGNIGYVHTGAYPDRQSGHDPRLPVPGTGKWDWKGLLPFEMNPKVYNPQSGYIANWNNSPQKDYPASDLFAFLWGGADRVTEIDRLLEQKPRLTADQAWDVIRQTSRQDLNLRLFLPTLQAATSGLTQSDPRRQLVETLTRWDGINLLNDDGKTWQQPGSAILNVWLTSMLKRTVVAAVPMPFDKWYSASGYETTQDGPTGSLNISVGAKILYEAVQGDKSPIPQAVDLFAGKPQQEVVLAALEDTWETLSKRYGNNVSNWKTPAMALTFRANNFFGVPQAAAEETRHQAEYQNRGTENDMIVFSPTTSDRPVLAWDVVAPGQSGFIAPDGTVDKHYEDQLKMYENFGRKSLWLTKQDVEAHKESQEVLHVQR
# Sequence of penicillin G-acylase (P06875 27-235): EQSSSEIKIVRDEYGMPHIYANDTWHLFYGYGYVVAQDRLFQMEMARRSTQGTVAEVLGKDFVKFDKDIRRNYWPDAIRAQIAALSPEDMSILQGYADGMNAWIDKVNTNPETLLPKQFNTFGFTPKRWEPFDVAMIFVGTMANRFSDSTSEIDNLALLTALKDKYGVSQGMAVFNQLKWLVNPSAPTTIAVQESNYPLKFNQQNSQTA
compound,measurement,setting,value
"O=C(Cc1ccccc1)Nc1ccc2c(C(F)(F)F)cc(=O)oc2c1 [PFC, 7-phenyl-acetic acid-4-trifluoromethyl-coumarinyl amide]",solubility,[1]; [2],< 1 µg/mL
same,solubility,[1]; [3],6 µg/mL
same,kinetic behaviour at higher substrate concentrations,penicillin G-acylase,substrate inhibition
"Cc1cc(=O)oc2cc(NC(=O)Cc3ccccc3)ccc12 [PMC, 7-phenylacetic acid-4-methylcoumarinyl amide]",solubility,[1]; [2],< 1 µg/mL
same,solubility,[1]; [3],6 µg/mL
same,kinetic behaviour at higher substrate concentrations,penicillin G-acylase,substrate inhibition

# Reference: patent US4777269A, “7-Phenylacetic acid-4-alkyl-coumarinyl amides useful in fluorometric determination of the activity of hydrolases” (European Atomic Energy Community, priority 1986, dated 1988)
